From patent US20080200567A1, “IN VIVO SCREENING MODELS FOR TREATMENT OF ALZHEIMER'S DISEASE AND OTHER QPCT-RELATED DISORDERS” (PROBIODRUG AG, priority 2007, published 2008)

Legend:
mammalian QC = settings: Busby et al. 1987 and later reports; cited from earlier work
human QC = target: T1, human QC (Homo sapiens, UniProt Q16769); test: QC inhibition by chelators (inhibitor assay); assay type: biochemical; settings: human QC and other animal QCs
T1 construct: The cDNA of the mature QC starting with codon 38 was fused in frame with the plasmid encoded 6× histidine tag; 6x histidine; made in house; host or cells: Pichia pastoris X33 (pPICZαB) or E. coli M15 (pQE-31)
T1 sequence (Q16769 29-361): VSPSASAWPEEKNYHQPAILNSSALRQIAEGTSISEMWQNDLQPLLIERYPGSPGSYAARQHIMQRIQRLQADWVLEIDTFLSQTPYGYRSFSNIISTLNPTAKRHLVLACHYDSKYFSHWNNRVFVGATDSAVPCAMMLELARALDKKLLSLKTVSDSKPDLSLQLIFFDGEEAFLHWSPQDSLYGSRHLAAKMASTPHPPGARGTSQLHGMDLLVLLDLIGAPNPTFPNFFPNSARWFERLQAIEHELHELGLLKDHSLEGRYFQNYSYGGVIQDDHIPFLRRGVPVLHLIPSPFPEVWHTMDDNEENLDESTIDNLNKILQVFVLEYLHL
Experimental: QC activity was evaluated fluorometrically using H-Gln-βNA. The samples consisted of 0.2 mM fluorogenic substrate, 0.25 U pyroglutamyl aminopeptidase (Unizyme, Horsholm, Denmark) in 0.2 M Tris/HCl, pH 8.0 containing 20 mM EDTA and an appropriately diluted aliquot of QC in a final volume of 250 μl. Excitation/emission wavelengths were 320/410 nm. The assay reactions were initiated by addition of glutaminyl cyclase. QC activity was determined from a standard curve of β-naphthylamine under assay conditions.
Reactions were carried out at 30° C. utilizing the NOVOStar reader for microplates (BMG labtechnologies). The samples consisted of varying concentrations of the fluorogenic substrate, 0.1 U pyroglutamyl aminopeptidase (Qiagen) in 0.05 M Tris/HCl, pH 8.0 containing 5 mM EDTA and an appropriately diluted aliquot of QC in a final volume of 250 μl. Excitation/emission wavelengths were 380/460 nm. The assay reactions were initiated by addition of glutaminyl cyclase. QC activity was determined from a standard curve of 7-amino-4-methylcoumarin under assay conditions. The kinetic data were evaluated using GraFit software.
This novel assay was used to determine the kinetic parameters for most of the QC substrates.
The initial velocities were evaluated and the enzymatic activity was determined from a standard curve of ammonia under assay conditions. All samples were measured at 30° C., using either the […]uor Plus or the Sunrise (both from TECAN) reader for microplates. Kinetic data was evaluated using GraFit software.
For inhibitor testing, the sample composition was the same as described above, except for the putative inhibitory compound added. For a rapid test of QC-inhibition, samples contained 4 mM of the respective inhibitor and a substrate concentration at 1 KM. For detailed investigations of the inhibition and determination of Ki-values, influence of the inhibitor on the auxiliary enzymes was investigated first. […] The inhibitory constant was evaluated by fitting the set of progress curves to the general equation for competitive inhibition using GraFit software.

[1] = Nonenzymatic turnover (cyclization) of model substrates; assay type: physicochemical; settings: without enzyme
QC = test: pH-dependence of the QC catalyzed conversion of Glu-βNA; assay type: biochemical
[2] = cited from earlier work

Row | Molecule | Inhibition of a mammalian QC (mammalian QC) | inhibition characteristics of QC by chelators (human QC) | also measured
1 | c1cnc2c(c1)ccc1cccnc12 [1,10-phenanthroline] | detected | inhibition | 
2 | Oc1cccc2cccnc12 [8-hydroxy-quinoline] |  | inhibition | 
3 | O=C(O)CN(CCN(CC(=O)O)CC(=O)O)CC(=O)O [EDTA] | did not inhibit |  | 
4 | NC(=O)CC[C@H](N)C(=O)Nc1ccc2ccccc2c1 [Gln-NA, Glutaminyl-beta-naphthylamine] |  |  | nonenzymatic turnover [1]: negligible
5 | N[C@@H](CCC(=O)O)C(=O)Nc1ccc2ccccc2c1 [Glu-βNA] |  |  | nonenzymatic turnover [1]: negligible; kinetically determined pKa-value (QC): 7.55+/−0.02; pH-optimum of catalysis (QC): ~6.0
6 | N[C@@H](CCC(=O)O)C(=O)O [Glutamate] |  |  | pKa-value for the α-amino moiety [2]: ~7.5; pKa-value for the γ-carboxylic moiety [2]: about 4.2
7 | O=C(O)c1cccc(C(=O)O)n1 [dipicolinic acid] |  | inhibition | 
8 | reduced 6-methylpterin | detected |  | 
